Laboratory results as given in US20090060851A1, “USE OF IDEBENONE FOR THE PREPARATION OF A TOPICALLY-APPLIED DEPIGMENTATION COMPOSITION AND CORRESPONDING COMPOSITION” (priority 2005, published 2009).

Tests used:
[1] = tested on: skin of nude adult mice; experiment: Epidermal and dermal morphometry, mouse skin; type: in vivo
Description: (§1) Creams containing 5% and 2.5% w/w idebenone (IDB) in a neutral phase were prepared. Said creams and a cream having an identical formulation but without idebenone were applied on nude adult mice with 3 months of age. The cream with idebenone was applied on the right half of the body of the animals and the control cream on the left half according to the scheme detailed below. The animals were sacrificed 1, 2, 3 or 4 hours after applying the cream (p.a.). • Batch A: animal treated with 5% IDB (1 hour p.a.) • Batch B: animal treated with 2.5% IDB (1 hour p.a.) • Batch C: animal treated with 5% IDB (2 hours p.a.) • Batch D: animal treated with 2.5% IDB (2 hours p.a.) • Batch E: animal treated with 5% IDB (3 hours p.a.) • Batch F: animal treated with 2.5% IDB (3 hours p.a.) • Batch G: animal treated with 5% IDB (4 hours p.a.) • Batch H: animal treated with 2.5% IDB (4 hours p.a.)
(§2) Morphological and morphometric studies: Thickness of the epidermis, the horny layer, the papillary dermis and reticular dermis was measured in at least 10 different points, the result being expressed as the average of the 10 measurements. Capillary vessel diameter was also measured in at least 10 points, expressing them by means of their average. The measurements were carried out using a Quantimet 500+ (Leica) image processing equipment. […]

[2] = tested on: skin of nude adult mice; experiment: Dermal capillary vessel diameters, mouse skin; type: in vivo; settings: topically applied
Description: as §1, §2

[3] = tested on: SK-MEL-28; experiment: Cell number quantitation with violet crystal; type: cell-based, human
Description: Cells: The study was carried out using a cell line derived from human melanoma, provided by ABAC (Asociación Banco Argentino de Células—Cell Bank of Argentina), with melanin synthesis capability (SK-MEL-28, ATCC origin). […] Study of in vitro compounds: […] After 24 hours have lapsed, the medium was replaced with 990 μl of fresh medium. 10 μl of sterile vehicle (50% propylene glycol, 30% ethanol and 20% distilled water) containing different concentrations of the compounds to be evaluated were added to this fresh medium. […] On the fourth day, the cells were not treated, and the remaining adherent cells were assayed on the fifth day according to the methods described below. The cells were thus continuously exposed to the compounds under study for the 5 days the culture lasted. All the concentrations of the compounds were studied in triplicate, comparing the mean of the 3 wells treated with the compounds with those treated with the vehicle alone. Cell number quantitation with violet crystal: A stain with a violet crystal aqueous solution was used for the purpose of determining the number of cells adhering to the plastic surviving in vitro treatment by means of indirect methods. […] The dishes were stained for 5 minutes at room temperature on a rotary platform, with gentle stirring. Then the excess colorant was decanted by turning the dish over and the entire dish was submerged 4 times in distilled water in a suitable container. After rinsing, the dishes were turned over and allowed to drip on absorbent paper until the excess water was completely removed. […] The plates were finally placed on a rotary agitator for 30 minutes at room temperature. […] In order to determine the fraction of cells surviving treatment at a specific concentration of the experimental agent, the OD590 of the treated wells (average of three measurements) was divided by the OD590 of the wells used with a control vehicle (average of three measurements).

[4] = Arzneim. Forsch/drug res. 35 (II), 11, pp. 1704, 1985; cited from earlier work
[5] = Idebenone dosing in skin cuts by gas chromatography (penetration); type: in vivo, mice; settings: mouse skin, topical cream
Description: Creams containing 5% and 2.5% w/w idebenone (IDB) in a neutral phase were prepared. Said creams and a cream having an identical formulation but without idebenone were applied on nude adult mice with 3 months of age. The cream with idebenone was applied on the right half of the body of the animals and the control cream on the left half according to the scheme detailed below. The animals were sacrificed 1, 2, 3 or 4 hours after applying the cream (p.a.). • Batch A: animal treated with 5% IDB (1 hour p.a.) • Batch B: animal treated with 2.5% IDB (1 hour p.a.) • Batch C: animal treated with 5% IDB (2 hours p.a.) • Batch D: animal treated with 2.5% IDB (2 hours p.a.) • Batch E: animal treated with 5% IDB (3 hours p.a.) • Batch F: animal treated with 2.5% IDB (3 hours p.a.) • Batch G: animal treated with 5% IDB (4 hours p.a.) • Batch H: animal treated with 2.5% IDB (4 hours p.a.) […]
Idebenone dosing by gas chromatography: The treated and control skin sections were placed epidermis side down on a cryostat stage and 300 micron thick sections parallel to the surface were obtained in such a manner so as to obtain a deep cut, a surface cut and a medium cut. […] Each extract was analyzed by gas chromatography using a Hewlett Packard 5890 gas chromatograph, using a capillary column with methyl silicone as stationary phase (HP-IMS, 25 m×0.2 mm, 0.33μ thick film). […]

COC1=C(OC)C(=O)C(CCCCCCCCCCO)=C(C)C1=O [idebenone, 6-(10-hydroxydecyl)-2,3-dimethoxy-5-methyl-1,4-benzoquinone]
Thicknesses of the papillary dermis and the reticular dermis ([1]; nude mice skin, 5% and 2.5% IDB creams versus control): did not significantly vary | Effect on epidermal thickness ([1]; nude mice, topically applied): does not substantially modify epidermal thickness | Effect on microcirculation vascular diameters [2]: does not substantially modify microcirculation vascular diameters | Toxicity for cells ([3]; SK-MEL-28, high concentrations): may be toxic for cells | Percentage of viable cells ([3]; dilution −1, percentage of control vehicle): 52% | Percentage of viable cells ([3]; dilution −2, percentage of control vehicle): 82% | Percentage of viable cells ([3]; dilution −3, percentage of control vehicle): 98% | Percentage of viable cells ([3]; dilution −4, percentage of control vehicle): 100% | Percentage of viable cells ([3]; dilution −5, percentage of control vehicle): 100% | Toxic effects reported [4]: no significant toxic effects have been reported | Penetration of IDB in the skin [5]: penetrates the skin and is retained up to two hours after its application in the most superficial sections
